Common to all, as to assay: microbe, parasite or virus in culture
In assay [1] the test system is T1, Escherichia coli MP21-05.
T1 construct: MP21-05
Also noted: species or system E. coli E. cloni 10G; Microdilution MIC of inhibitor alone in LB, OD600 read-out, E. coli 10G without or with empty vector. Particulars: MP2105, inhibitor alone. As for the experimental part: (§1) Susceptibility testing of isogenic E. coli E. cloni 10G (Table 2) was determined by both the microdilution assay. […] Overnight cultures were prepared in LB supplemented with 25 mg/L chloramphenicol at 37°C under shaking at 700 rpm. The overnight cultures were diluted in PBS to 10^6 CFU/ mL, followed by inoculation in LB to ~10^5 CFU in 384-well plates (VWR, Radnor, PA, USA). Plates were prepared with twofold increasing concentrations of meropenem and cefepime ([…], respectively) to a total inoculated volume of 100 µL Plates were incubated at 37°C without shaking for 19–21 h. OD600 was determined in a SpectraMax Plus plate reader (Molecular Devices).

Assay [2] concerns T2, Escherichia coli MP32-64.
T2 construct: MP32-64
Also on record: species or system E. coli E. cloni 10G; Microdilution MIC of inhibitor alone in LB, OD600 read-out, E. coli 10G without or with empty vector. The following applies: MP3264, inhibitor alone. As for the experimental part: as §1

For assay [3], the system named is T3, Escherichia coli #22.
T3 construct: #22
Also noted: species or system clinical isolates of E. coli and K. pneumoniae; Broth microdilution MIC (CLSI), cation-adjusted Mueller-Hinton broth, visual reading, antibiotic alone against clinical isolates. Particulars: Escherichia coli, antibiotic alone. As to the method:
(§2) MICs for clinical isolates were determined in a broth microdilution assay according to Clinical and Laboratory Standards Institute (CLSI) ([75]), using cation-adjusted Mueller-Hinton broth (Thermo Fisher Scientific, Lenexa, USA). The direct colony suspension method was utilized by preparing an inoculum of an OD600 0.17, except for E. coli #36 in which 0.10 was used, which equated to a concentration of 10^8 colony-forming units (CFU) per mL. Inoculum controls were included for all assays ([76]). MICs for all clinical isolates were determined alone and in combination with inhibitors for all BLs tested, either using manually prepared plates of aztreonam, cefepime, ceftazidime, and amoxicillin or premade plates of meropenem (Sensititre), and all antibiotics tested at a twofold increasing concentration of 0.03–64 mg/L (Table 1; Table S3). Compound APC24-7 was tested at a fixed concentration of 14, 28, and 57 µM (8, 16, or 32 mg/L) with meropenem, and for all other BLs tested at the highest inhibitor concentration to be able to compare the efficiency of the BI/BLI combinations. Taniborbactam was tested at a fixed equimolar concentration (6.5, 13, and 26 mg/L) and only evaluated with meropenem. A minimum of 2–3 replicates was performed for all combinations. Assay plates were incubated at 37°C without shaking for 16–20 h, and the results were visually interpreted in accordance with EUCAST guidelines and clinical breakpoint table version 15.0 (www.eucast.org).

The test system of assay [4] is T4, Escherichia coli #29.
T4 construct: #29
Also noted: species or system clinical isolates of E. coli and K. pneumoniae; Broth microdilution MIC (CLSI), cation-adjusted Mueller-Hinton broth, visual reading, antibiotic alone against clinical isolates. Particulars: Escherichia coli, antibiotic alone. As for the experimental part:
as §2

The subject of assay [5] is T5, Escherichia coli #36.
T5 construct: #36
Also noted: species or system clinical isolates of E. coli and K. pneumoniae; Broth microdilution MIC (CLSI), cation-adjusted Mueller-Hinton broth, visual reading, antibiotic alone against clinical isolates. The following applies: Escherichia coli, antibiotic alone. As for the experimental part: as §2

Assay [6] relates to T6, Escherichia coli BAA-2469.
T6 construct: ATCC BAA-2469
Also on record: species or system clinical isolates of E. coli and K. pneumoniae; Broth microdilution MIC (CLSI), cation-adjusted Mueller-Hinton broth, visual reading, antibiotic alone against clinical isolates. The following applies: Escherichia coli, BAA2469, antibiotic alone. As to the method: as §2

Assay [7] concerns T7, Klebsiella pneumoniae BAA-2146.
T7 construct: ATCC BAA-2146
Also on record: species or system clinical isolates of E. coli and K. pneumoniae; Broth microdilution MIC (CLSI), cation-adjusted Mueller-Hinton broth, visual reading, antibiotic alone against clinical isolates. Particulars: Klebsiella pneumoniae, BAA2146, antibiotic alone. As for the experimental part: as §2

The test system of assay [8] is T8, Klebsiella pneumoniae BAA1705.
T8 construct: ATCC BAA-1705
Also on record: species or system clinical isolates of E. coli and K. pneumoniae; Broth microdilution MIC (CLSI), cation-adjusted Mueller-Hinton broth, visual reading, antibiotic alone against clinical isolates. Particulars: Klebsiella pneumoniae, BAA1705, antibiotic alone. As to the method:
as §2

For assay [9], the system named is T9, Klebsiella pneumoniae K46-62.
T9 construct: K46-62
Also noted: species or system clinical isolates of E. coli and K. pneumoniae; Broth microdilution MIC (CLSI), cation-adjusted Mueller-Hinton broth, visual reading, antibiotic alone against clinical isolates. The following applies: Klebsiella pneumoniae, K4662, antibiotic alone. As for the experimental part: as §2

Assay [10] deals with T10, Klebsiella pneumoniae K66-45.
T10 construct: K66-45
Also noted: species or system clinical isolates of E. coli and K. pneumoniae; Broth microdilution MIC (CLSI), cation-adjusted Mueller-Hinton broth, visual reading, antibiotic alone against clinical isolates. Particulars: Klebsiella pneumoniae, K6645, antibiotic alone. As to the method:
as §2

For assay [11], the system named is T11, Klebsiella pneumoniae KresCPE0097.
T11 construct: KresCPE0097
Also on record: species or system clinical isolates of E. coli and K. pneumoniae; Broth microdilution MIC (CLSI), cation-adjusted Mueller-Hinton broth, visual reading, antibiotic alone against clinical isolates. The following applies: Klebsiella pneumoniae, KRESCPE0097, antibiotic alone. As for the experimental part: as §2

Assay [12] deals with T12, Klebsiella pneumoniae KresCPE0353.
T12 construct: KresCPE0353
Also on record: species or system clinical isolates of E. coli and K. pneumoniae; Broth microdilution MIC (CLSI), cation-adjusted Mueller-Hinton broth, visual reading, antibiotic alone against clinical isolates. Particulars: Klebsiella pneumoniae, KRESCPE0353, antibiotic alone. As to the method: as §2

The test system of assay [13] is T13, Klebsiella pneumoniae KresCPE0367.
T13 construct: KresCPE0367
Also noted: species or system clinical isolates of E. coli and K. pneumoniae; Broth microdilution MIC (CLSI), cation-adjusted Mueller-Hinton broth, visual reading, antibiotic alone against clinical isolates. The following applies: Klebsiella pneumoniae, KRESCPE0367, antibiotic alone. As to the method: as §2

Assay [14] deals with T14, Klebsiella pneumoniae KresCPE0372.
T14 construct: KresCPE0372
Also noted: species or system clinical isolates of E. coli and K. pneumoniae; Broth microdilution MIC (CLSI), cation-adjusted Mueller-Hinton broth, visual reading, antibiotic alone against clinical isolates. Particulars: Klebsiella pneumoniae, KRESCPE0372, antibiotic alone. As to the method: as §2

The mark [15] stands for this setting: read-out: MIC APC24-7 (μM) / APC148*.
Setting [16] is: read-out: MIC AMX (mg/L) / AMX alone.
Where [17] appears, read: read-out: MIC AZT (mg/L) / AZT alone.
The mark [18] stands for this setting: read-out: MIC FEP (mg/L) / FEP alone.
Setting [19] is: read-out: MIC APC24-7 (μM) / Taniborbactam**.

Like-named read-outs stand apart in the source and are kept apart here.

On to `CN(C[C@H](O)[C@@H](O)[C@H](O)[C@H](O)CO)C(=O)c1ccc(CN(Cc2ccccn2)Cc2ccccn2)nc1` [APC148], for which the MIC in assay [1] (setting [15]) and in [2] (setting [15]) was > 906 µM each time.
In the case of `CC1(C)S[C@@H]2[C@H](NC(=O)[C@H](N)c3ccc(O)cc3)C(=O)N2[C@H]1C(=O)O` [amoxicillin], the MIC in assay [3] (setting [16]), in assay [4] (setting [16]), in assay [5] (setting [16]), in assay [6] (setting [16]), in assay [7] (setting [16]) and in assay [8] (setting [16]) was > 64 mg/L each time. Moreover, the MIC in [9] (setting [16]), in [10] (setting [16]), in assay [11] (setting [16]), in assay [12] (setting [16]), in assay [13] (setting [16]) and in assay [14] (setting [16]) was > 64 mg/L throughout.
Consider `C[C@H]1[C@H](NC(=O)/C(=N\OC(C)(C)C(=O)O)c2csc(N)n2)C(=O)N1S(=O)(=O)O` [aztreonam], for which the MIC in assay [3] (setting [17]) is > 64 mg/L; in assay [4] (setting [17]), > 64 mg/L; in assay [5] (setting [17]) it was > 64 mg/L; in assay [6] (setting [17]), 16 mg/L; in [7] (setting [17]) it was > 64 mg/L; in [8] (setting [17]), > 64 mg/L. In addition, the MIC in assay [9] (setting [17]) was > 64 mg/L; in assay [10] (setting [17]), > 64 mg/L; in [11] (setting [17]), 64 mg/L; in assay [12] (setting [17]), > 64 mg/L; in assay [13] (setting [17]) it was > 64 mg/L; in assay [14] (setting [17]) it was 32 mg/L.
With `CO/N=C(\C(=O)N[C@@H]1C(=O)N2C(C(=O)[O-])=C(C[N+]3(C)CCCC3)CS[C@H]12)c1csc(N)n1` [cefepime], the MIC in assay [3] (setting [18]), in assay [4] (setting [18]), in [5] (setting [18]), in [6] (setting [18]), in assay [7] (setting [18]) and in assay [8] (setting [18]) was > 64 mg/L throughout. The MIC in assay [9] (setting [18]) is > 64 mg/L; in assay [10] (setting [18]), > 64 mg/L; in assay [11] (setting [18]) it was 16 mg/L; in [12] (setting [18]) it was > 64 mg/L; in assay [13] (setting [18]), > 64 mg/L; in assay [14] (setting [18]), > 64 mg/L.
Turning to `CC(C)(O/N=C(\C(=O)N[C@@H]1C(=O)N2C(C(=O)[O-])=C(C[n+]3ccccc3)CS[C@H]12)c1csc(N)n1)C(=O)O` [ceftazidime], the MIC in [3] (read-out: MIC), in assay [4] (read-out: MIC), in assay [5] (read-out: MIC), in [6] (read-out: MIC), in assay [7] (read-out: MIC) and in assay [8] (read-out: MIC) was > 64 mg/L each time. The MIC in assay [9] (read-out: MIC) is > 64 mg/L; in assay [10] (read-out: MIC) it was > 64 mg/L; in assay [11] (read-out: MIC), 8 mg/L; in assay [12] (read-out: MIC), > 64 mg/L; in assay [13] (read-out: MIC), > 64 mg/L; in assay [14] (read-out: MIC), > 64 mg/L.
As for `NCCN[C@H]1CC[C@H](CC(=O)N[C@H]2Cc3cccc(C(=O)O)c3OB2O)CC1` [taniborbactam], the MIC in [1] (setting [19]) and in [2] (setting [19]) was > 906 µM each time.

The record behind these values is publication PMC12724231, “APC24-7, a covalent combination of boronic acid and chelator moieties, restores β-lactam efficiency against metallo-β-lactamase-producers” (mSphere, 2025).
